Reference: patent US20130224164A1, “Environmental Clostridial Bacteriotherapy and Related Formulations and Methods of Manufacture and Use” (VIROPHARMA INCORPORATED, priority 2010, published 2013)

Tested on: healthy subjects ≧60 years of age
Test: Adverse events during oral vancomycin pre-treatment period of the Phase 1 study
Format: in vivo, human
Protocol: VP20621 (10^4, 10^6, or 10^8 spores) or placebo were administered as a single dose to subjects age 18-45 (Group 1) or ≧60 years of age (Group 2). In Group 3, an oral suspension of 10^8 spores or placebo was administered twice daily for five days to patients≧60 years in age. In Group 4, subjects≧60 years of age received 5 days of oral vancomycin followed by 14 days of once daily VP20621 (10^4, 10^6, or 10^8 spores) or placebo. All subjects were followed through day 28. C. difficile stool cultures were performed at various time points. C. difficile isolates were tested for the production of toxin by enzyme immunoassay.
Purified VP 20621 (spores of a non-toxigenic strain of C. difficile) were produced in a liquid culture medium free of animal-derived components. VP 20621 was administered as an oral liquid suspension. The potency of the drug is based on the viable count of the spores.
Forty-three (43) subjects were pre treated with vancomycin to ensure that a sufficient number of subjects would be available for randomization to achieve the planned target sample size of 36. Twelve (28%) of the 43 subjects had adverse events during the vancomycin pre treatment period (Table 1).

[1] = vancomycin pre-treatment, N = 43

## CN[C@H](CC(C)C)C(=O)N[C@H]1C(=O)N[C@@H](CC(N)=O)C(=O)N[C@H]2C(=O)N[C@H]3C(=O)N[C@H](C(=O)N[C@H](C(=O)O)c4cc(O)cc(O)c4-c4cc3ccc4O)[C@H](O)c3ccc(c(Cl)c3)Oc3cc2cc(c3O[C@@H]2O[C@H](CO)[C@@H](O)[C@H](O)[C@H]2O[C@H]2C[C@](C)(N)[C@H](O)[C@H](C)O2)Oc2ccc(cc2Cl)[C@H]1O [Vancomycin, vancomycin]
Group 4, during pre-treatment with vancomycin
  Subjects with a gastrointestinal adverse effect: 16%
Group 4, during pre-treatment with vancomycin (3/43)
  Subjects with mild diarrhea or loose/watery stools: 7%
Vancomycin pre treatment period, twelve of 43 subjects
  Subjects with adverse events: 28%
[1]
  Gastrointestinal AEs: Abdominal distention: 1 (2%)
  Gastrointestinal AEs: Abdominal pain: 2 (5%)
  Gastrointestinal AEs: Flatulence: 1 (2%)
  Gastrointestinal AEs: Gingival bleeding: 1 (2%)
  Gastrointestinal AEs: Oral paresthesia: 1 (2%)
  Gastrointestinal AEs: Toothache: 1 (2%)
  Gastrointestinal AEs: Vomiting: 1 (2%)
  Other AEs: Dizziness: 2 (5%)
  Other AEs: Dry skin: 1 (2%)
  Other AEs: Malaise: 1 (2%)
  Other AEs: Pruritis: 1 (2%)
  Other AEs: Rash: 1 (2%)
Vancomycin pre-treatment, oral 125 mg QID Days −5 to −1, N = 43
  Gastrointestinal AEs: Diarrhea: 3 (7%)
